{"source": "paper PMC11573584", "about": "“Thanatin and vinyl sulfide analogues as narrow spectrum antimicrobial peptides that synergise with polymyxin B” (Frontiers in Pharmacology, 2024)", "origin": "cited, not measured here", "key": {"P. aeruginosa PAO1": {"test_system": "P. aeruginosa PAO1", "conditions": "ref Sinha et al. (2022); cited from earlier work", "from_the_text": "TABLE 2 Minimum Inhibitory Concentrations (MICs) of thanatin* (5) and analogues (8–11) towards a variety of pathogens. | column: Minimum inhibitory concentration (µM) / 1 (Thanatin) ^a"}, "S. aureus ATCC 25923": {"test_system": "S. aureus ATCC 25923", "conditions": "non-cation adjusted media, ref Sinha et al. (2022), cited from earlier work", "from_the_text": "(§1) TABLE 1 Minimum Inhibitory Concentrations (MICs) of thanatin* (5) and similar analogues against a variety of pathogens. | column: Minimum inhibitory concentration (µM) / Thanatin ^a ^, ^b (1); Minimum inhibitory concentration (µM) / Thanatin M21F ^b (4) || TABLE 2 Minimum Inhibitory Concentrations (MICs) of thanatin* (5) and analogues (8–11) towards a variety of pathogens. | column: Minimum inhibitory concentration (µM) / 1 (Thanatin) ^a"}, "E. coli ATCC 25922": {"test_system": "E. coli ATCC 25922", "conditions": "non-cation adjusted media, ref Wu et al. (2013); cited from earlier work", "from_the_text": "as §1, with “S-Thanatin ^a (3)” for “Thanatin M21F ^b (4)”"}, "P. aeruginosa ATCC 27853": {"test_system": "P. aeruginosa ATCC 27853", "conditions": "non-cation adjusted media, ref Sinha et al. (2022); cited from earlier work", "from_the_text": "(§2) TABLE 1 Minimum Inhibitory Concentrations (MICs) of thanatin* (5) and similar analogues against a variety of pathogens. | column: Minimum inhibitory concentration (µM) / Thanatin ^a ^, ^b (1); Minimum inhibitory concentration (µM) / Thanatin M21F ^b (4)"}, "E. coli BL21": {"test_system": "E. coli BL21", "conditions": "non-cation adjusted media, ref Sinha et al. (2022); cited from earlier work", "from_the_text": "as §2"}}, "note": "Read-outs that look alike come from different tables or passages of the source. Marks after values point to notes of the source that are not given here."}
{"substance": "Thanatin [Thanatin (1)]", "values": [{"measurement": "Minimum inhibitory concentration (MIC)", "setting": "P. aeruginosa PAO1", "result": 2, "unit": "µM"}, {"measurement": "Minimum inhibitory concentration (MIC)", "setting": "S. aureus ATCC 25923; listed as 1 (Thanatin)", "result": 8, "unit": "µM"}, {"measurement": "Minimum inhibitory concentration (MIC)", "setting": "S. aureus ATCC 25923", "result": "8 ^b µM"}, {"measurement": "Minimum inhibitory concentration (MIC)", "setting": "E. coli ATCC 25922", "result": "3.2 ^a µM"}, {"measurement": "Minimum inhibitory concentration (MIC)", "setting": "P. aeruginosa ATCC 27853", "result": "1 ^b µM"}, {"measurement": "Minimum inhibitory concentration (MIC)", "setting": "E. coli BL21", "result": "0.5 ^b µM"}]}
